# Results as given in patent US5227163A, “Lice-repellant compositions” (priority 1992, dated 1993).
# Several values for one entry are separate records, joined by “and”; a condition that tells them apart may be missing. Equal values may be shown once.
# Experiments:
# human body lice [1] = assay: In vivo test of lice repellency on rabbits (spray, gel, de cologne); design: species or system Pediculus humanus humanus (on New Zealand white rabbits); settings: for % Repellency (Mean Values): Table 3; for Number of Lice (Out of 40) Found in the Treated Area: single experiments (a), (b), (c), listed as D.M.P.
# Method: (§1) Body lice were reared in the laboratory by feeding them every 48 hours on rabbits. Lice were placed on the shaved abdomen of a white rabbit and left until they fed to satiety. Outside the host the lice were maintained at a temperature of 30 ±1° C., and relative humidity of 70±10%.
# (§2) The abdomen of a New Zealand white rabbit was shaved and 100 μl of the test substance was evenly distributed over an area 2.5×5 cm. A glass cylinder 5 cm high with an internal diameter of 3.5 cm was placed on the rabbit's abdomen so that one half of it was covering the treated area and the other half the adjacent untreated area. 40 human body lice (Pediculus humanus humanus) (20 adults and 20 nymphs) which had been fed 24 hours previously were placed in the middle of the cylinder between the treated and untreated area, and the cylinder was covered with a dark cloth in order to keep the test area in the dark. The lice remained on the body of the rabbit for 5 minutes during which time over 95% of them had started feeding. The number of lice found on the treated area was then recorded and the specimen was photographed. Room temperature during the test was 20±3° C. For comparison to the tested samples, two controls were also tested: 70% Ethanol (Frutarom, C. P.) and 33% Dimethyl Phthalate (in 70% Ethanol).
# The products were topically applied as a spray, lotion or gel on human hair and skin, to repel lice. The above procedure was carried out 1, 3, 5, and 24 hours after application of a test substance. Each substance was tested three times on three different rabbits on three different occasions.
# (§3) % Repellency was calculated according to equation 1.
# Where: A = Total Number of lice
# n = Mean number of lice found in the treated area
# (§4) According to Equation 1, when lice are evenly distributed between the treated and untreated areas (n=1/2 A), % Repellency=0, and when no lice are left in the treated area (n=0), % Repellency=100.
# human lice = assay: In vivo lice repellency on rabbits of shampoo and conditioner; design: species or system human lice (on rabbits); settings: for % Repellency (Mean Values): Table 5; for Number of Lice (Out of 40) Found in the Treated Area: three experiments, listed as D.M.P.
# Method: as §1
# as §2, with “Ethanol). […]” for “Ethanol).”
# The efficacy of a shampoo and a hair-conditioner, aimed at repellency of human lice was examined in an in vivo procedure on rabbits. Each experiment included a terpenoid containing product and four controls: 70% Ethanol, Dimethyl phthalate, placebo shampoo and placebo conditioner. All experiments were repeated three times, and the results were consistent, as shown by Table 4.
# as §3, §4
# human body lice [2] = assay: In vivo test of lice repellency on rabbits (spray, gel, de cologne); design: species or system Pediculus humanus humanus (on New Zealand white rabbits); settings: 7 hours
# lice = assay: Standard in vitro test on filter paper (petri-dish lice repellency); settings: 10 min, 20±3° C.
# Method: Screening tests were performed on many substances of the following groups: terpenes (hydrocarbons), terpenoid alcohols, terpenoid esters, terpenoid aldehydes and ketones, essential oils which contain terpenoids and perfumes which contain terpenoids, as well as various general insect repellents, for lice-repellency. Each experiment included exposure of the lice to different concentrations of the tested substance, and measuring the dose response of those materials.
# A petri-dish method was used to examine the repellency of the solutions for lice. A filter paper (Whatman No. 4, 5.5 cm in diameter) was secured in a petri-dish. A 100 μl portion of the test solution was placed on a corduroy patch (1.5 cm^2). The material was allowed to dry for 30 min. at room temperature (20±3° C.) and the patch was placed at the periphery of the petri-dish. A patch treated with a control solution (96% Ethanol) was placed on the opposite side of the dish. Twenty female lice which had been fed 24 hours previously were placed in the middle of the dish. A box was placed over the dish and it was covered with a dark cloth in order to keep the test area in the dark. The experiment was carried out at room temperature (20°±3° C.) and lasted 10 min. The number of lice on the treated and controlled patches as well as on the area between the patches was recorded in a protocol. The experiment was repeated three times for each sample.
# % repellency was calculated by the following formula:
# where: T=number of lice on the treated patch
# C=number of lice on the untreated patch
# The following terms were recorded:
# RC80 =Concentration giving 80% repellency.
# RC50 =Concentration giving 50% repellency.
# RD80 =mg/cm^2 giving 80% repellency.
# RD50 =mg/cm^2 giving 50% repellency.
# mosquito = settings: Hwang et al. 1985; Ruledge 1988; cited from earlier work
smiles,measurement,setting,value
COC(=O)c1ccccc1C(=O)OC [Dimethyl Phthalate],% Repellency (Mean Values),human body lice [1]; 1 hour,20%
same,Number of Lice (Out of 40) Found in the Treated Area,human body lice [1]; 1 hour,21 and 12 and 15
same,% Repellency (Mean Values),human body lice [1]; 3 hours,10%
same,Number of Lice (Out of 40) Found in the Treated Area,human body lice [1]; 3 hours,16 and 18 and 20
same,% Repellency (Mean Values),human body lice [1]; 5 hours,20%
same,Number of Lice (Out of 40) Found in the Treated Area,human body lice [1]; 5 hours,16 and 14 and 18
same,"lice repellency in vivo, in words","human body lice [1]; rabbit, in vivo",poor results
same,repellency against lice over the duration stated,human body lice [1]; range over at least 5 or 7 hours,10-25%
same,% Repellency (Mean Values),human lice; 1 hour,20%
same,Number of Lice (Out of 40) Found in the Treated Area,human lice; 1 hour,21 and 12 and 15
same,% Repellency (Mean Values),human lice; 3 hours,10%
same,Number of Lice (Out of 40) Found in the Treated Area,human lice; 3 hours,16 and 18 and 20
same,Number of Lice (Out of 40) Found in the Treated Area,human lice; 4 hours,16 and 14 and 18
same,% Repellency (Mean Values),human lice; 5 hours,20%
same,% Repellency (Mean Values),human lice; 7 hours,26%
same,Number of Lice (Out of 40) Found in the Treated Area,human lice; 7 hours,18 and 14 and 12
same,% Repellency (Mean Values),human body lice [2]; Table 3,26%
same,Number of Lice (Out of 40) Found in the Treated Area,"human body lice [2]; single experiments (a), (b), (c), listed as D.M.P.",18 and 14 and 12
"CC1=CCC(C(C)(C)O)CC1 (stereo not drawn) [α-TERPINEOL, α-terpineol]",RC50 (Concentration giving 50% repellency),lice,0.040%
same,RC80 (Concentration giving 80% repellency),lice,0.080%
same,RD80 (mg/cm^2 giving 80% repellency),lice,0.056 mg/cm^2
same,"mosquito repellency, in words",mosquito,useful in mosquito repellent
